Laboratory results from patent US8673594B2, “Methods for stimulating nervous system regeneration and repair by regulating arginase I and polyamine synthesis” (Research Foundation of City University of New York, priority 2000, dated 2014).

Key:
[1] = system: cerebellar neurons on MAG-expressing CHO cells; test: Neurite outgrowth of cerebellar neurons on MAG-expressing or control CHO cells; format: cell-based
Description: FIG. 2: Improved Axonal Growth on MAG Induced By Elevating cAMP Levels is Transcription-Dependent. (A) Isolated cerebellar neurons at a density of 20,000 neurons per well were plated onto a monolayer of either MAG-expressing Chinese hamster ovary (CHO) cells (striped bars) or control CHO cells (black bars) and cultured overnight before being fixed and immunostained for GAP43 to visualize the neurites. The length of the longest neurite per neuron, from 180-200 neurons, was measured and results are the average length+/−SEM. Where indicated, dibutyryl cAMP (dbcA) at 1 mM in the presence or absence of the inhibitor of transcription, 5,6-dichloro-1-b-D-ribofuranosylbenzimidazole (DRB) at 5 μM, was added to each culture. (B) Cerebellar neurons (1×10^6) were plated onto poly-L-lysine and cultured overnight with brain-derived neurotrophic factor (BDNF) at 200 ng/ml, (termed priming) in the presence or absence of DRB at 5 μM, before being transferred to the CHO cell monolayers.
FIG. 6: An Ornithine Decarboxylase (ODC) Inhibitor Abrogates the Blocking Effect of dbcAMP on the Inhibition of Axonal Outgrowth by MAG and Myelin. […] The longest neurite from at least 180-200 neurons were measured. Results are shown as the mean neurite length+/−SEM.
(§1) After further incubation, neurons were fixed and immunostained for GAP43. The longest neurite from each neuron for 180-200 neurons were measured. Results are shown as the mean neurite length+/−SEM.
FIG. 8: An Inhibitor Of ODC Blocks The Priming Effects Of GDNF On The Inhibition By MAG. […] After further incubation, neurons were fixed and immunostained for GAP43. The longest neurite from each neuron for 180-200 neurons were measured. Results are shown as the mean neurite length±SEM.
Primed neurons were transferred to either MAG-expressing or control CHO cells (A) or a substrate of CNS myelin (B) for further incubation. Neurons were then fixed and immunostained for GAP43. The longest neurite from each neuron was measured for 180-200 neurons. Results are shown as the percentage of control. […]
Neurons were isolated essentially as described in Doherty at al., Nature, 343, pp. 464-66 (1990); Neuron, 5, pp. 209-19 (1990); and Kleitman at al., Culturing Nerve Cells, pp. 337-78, MIT Press, Cambridge, Mass./London, England (G. Banker and K Goslin, Eds.) (1991). Briefly, for animals up to nine days of age, the cerebellum, from two animals were removed and combined in 5 ml of 0.025% trypsin in PBS, triturated, and incubated for a further 10 minutes (min.) at 37° C. Trypsinization was stopped by addition of 5 ml DMEM containing 10% fetal calf serum (FCS) and cells were centrifuged at 800 rpm for 6 min. […] For older DRG neurons, ganglia were removed from two animals and incubated in 5 ml of Sat medium containing 0.025% trypsin and 0.15% collagenase type I (Worthington) for 30 min. at 37° C. The ganglia were triturated with a fire-polished Pasteur pipette. Trypsinization was stopped by adding 5 ml of DMEM containing 10% FCS, centrifuged at 800 rpm for 6 min, and resuspended in 2 ml of SAT (DeBellard et al., 1996). Cells were counted with a Coulter counter.
Chinese hamster ovary (CHO) cells deficient in the dihydrofolate reductase (dhfr) gene (Urlaub and Chasin, Proc. Natl, Acad, Sci. 77, pp. 4216-20 (1980)) were transfected with a MAG-cDNA expression plasmid with the dhfr gene and the L-MAG cDNA, cells with multiple copies of dbfr were selected by growing in increasing concentrations of methotrexate, and the expression of MAG by individual transfected CHO cell lines characterized as described in Mukhopadhyay et al., Neuron, 13, pp. 757-67 (1994), which is incorporated herein by reference. The MAG-expressing transfected CHO cell line) (“CHO-MAG2”) in that publication was deposited on Jun. 27, 1996 with the American Type Culture Collection (ATCC) (Rockville, Md.) according to the provisions of the Budapest Treaty, and was assigned the ATCC accession number designated: ATCC CRL-12145. […]

[2] = target: T1, arginase (Rattus norvegicus, UniProt P07824); conditions: cited from earlier work
T1 sequence (P07824 1-323): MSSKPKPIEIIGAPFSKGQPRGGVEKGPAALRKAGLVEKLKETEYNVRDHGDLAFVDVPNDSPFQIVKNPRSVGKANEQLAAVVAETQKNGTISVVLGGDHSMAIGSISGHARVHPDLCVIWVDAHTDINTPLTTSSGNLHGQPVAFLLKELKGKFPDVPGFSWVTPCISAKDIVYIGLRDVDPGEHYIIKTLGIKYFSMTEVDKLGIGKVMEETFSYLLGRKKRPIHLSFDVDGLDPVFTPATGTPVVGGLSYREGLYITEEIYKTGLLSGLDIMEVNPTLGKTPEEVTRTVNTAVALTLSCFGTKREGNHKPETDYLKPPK

[3] = system: DRG neurons on MAG-expressing CHO cells; test: Neurite outgrowth of DRG neurons on MAG-expressing or control CHO cells; format: cell-based; conditions: P0-1 DRG neurons, DFMO 1 mM
Description: After overnight incubation, neurons were fixed and immunostained for GAP 43. The longest neurite from each of 120-150 DRG neurons were measured. Results are shown as the mean neurite length+/−SEM.
FIG. 14: Over-Expression Of Arginase In Older DRG Neurons By Adenovirus-Mediated Gene Transfer Is Sufficient To Overcome Inhibition By MAG. Postnatal day 5 DRG neurons (0.5×10^6) were plated in 24-well plates and infected with adenovirus containing ArgI-GFP or GFP alone. Alter overnight culture, infected neurons were transferred to MAG-expressing (stippled bars) or control (black bars) CHO cells for neurite outgrowth. Neurons were fixed and immunostained for GAP43. The neurons with double staining of GAP43 and GFP were considered as positively infected. The length of the longest neurite per neuron was measured for 120-150 positively infected neurons. Results are shown as the average neurite length+/−SEM of GFP-infected (GFP) or ArgI-infected (ArgI) neurons grown on MAG.
Neurons were isolated essentially as described in Doherty at al., Nature, 343, pp. 464-66 (1990); Neuron, 5, pp. 209-19 (1990); and Kleitman at al., Culturing Nerve Cells, pp. 337-78, MIT Press, Cambridge, Mass./London, England (G. Banker and K Goslin, Eds.) (1991). […] Cells were counted with a Coulter counter. […]

[4] = system: cerebellar neurons on purified CNS myelin; test: Neurite outgrowth of cerebellar neurons on purified CNS myelin substrate; format: cell-based
Description: Isolated cerebellar neurons at a density of 20,000 neurons per well were plated onto a substrate of purified CNS myelin and cultured overnight before being fixed and immunostained for GAP43. The length of the longest neurite per neuron from 180-200 neurons was measured and results are the average length+/−SEM. Where indicated, dibutyryl cAMP (dbcA) at 1 mM in the presence or absence of the inhibitor of transcription, 5,6-dichloro-1-b-D-ribofuranosylbenzimidazole (DRB) at 5 μM, was added to each culture. (B) Cerebellar neurons (1×10^6) were plated onto poly-L-lysine and cultured overnight with brain-derived neurotrophic factor (BDNF) at 200 ng/ml, (termed priming) in the presence or absence of DRB at 5 μM, before being transferred to the CNS myelin substrate.
The longest neurite from at least 180-200 neurons were measured. Results are shown as the mean neurite length+/−SEM.
as §1
Primed neurons were transferred to either MAG-expressing or control CHO cells (A) or a substrate of CNS myelin (B) for further incubation. Neurons were then fixed and immunostained for GAP43. The longest neurite from each neuron was measured for 180-200 neurons.
Trypsinization was stopped by addition of 5 ml DMEM containing 10% fetal calf serum (FCS) and cells were centrifuged at 800 rpm for 6 min. […] The ganglia were triturated with a fire-polished Pasteur pipette. […] Cells were counted with a Coulter counter.
The neurite outgrowth assay was carried out by adding 5×10^4 neurons to the immobilized myelin substrate or 2×10^4 neurons to the CHO cell monolayers. Briefly, confluent monolayers of control and MAG-expressing CHO cells were established over a 24-hour (h) period in individual chambers of an 8-well tissue culture slide (Lab-Tek). […] Culture medium was SATO containing 2% FCS.
GAP43 antibody was detected by staining with Texas Red and arginase antibody was detected with anti-biotin secondary antibody followed by Texas Red-conjugated streptavidin.
After periods of time as indicated, the co-cultures were fixed for 30 min with 4% paraformaldehyde and permeabilized with ice-cold methanol for 2 min. […] After three more washes, the slides were mounted in Permfluor (Baxter) and viewed with a Zeiss fluorescent microscope. The length of the longest neurite for each GAP43-positive neuron was determined using the Biological Detection System image analysis program (Pittsburgh).

[5] = putrescine in the culture, no priming

OC[C@H]1O[C@@H](n2cnc3cc(Cl)c(Cl)cc32)[C@H](O)[C@@H]1O [DRB, 5,6-dichloro-1-b-D-ribofuranosylbenzimidazole]
effect of transcription inhibitor on the dbcAMP/BDNF block of MAG inhibition ([1]; DRB 5 μM with dbcAMP 1 mM or BDNF 200 ng/ml priming): neither dbcAMP nor BDNF block inhibition

N[C@@H](CCCCB(O)O)C(=O)O [ABH, 2(S)-amino-6-boronohexanoic acid]
arginase inhibitor potency, in words [2]: most potent inhibitor of arginase identified to date

Cl.NCCCC(N)(C(=O)O)C(F)F (racemic) [DFMO, DL-a-difluoromethyl-ornithine hydrochloride]
effect on the positive (priming) effect of BDNF on axonal growth in the presence of MAG ([1]; DFMO 1 mM during overnight priming with BDNF 200 ng/ml): completely abrogated
effect on the positive (priming) effect of GDNF on axonal growth in the presence of MAG ([1]; DFMO 1 mM during overnight priming with GDNF 200 ng/ml): completely abrogated
effect on the dbcAMP block of inhibition by MAG ([1]; DFMO 1 mM with dbcAMP 1 mM): lost
effect alone on neurite growth on control CHO cells ([1]; DFMO 1 mM, control CHO cells): no significant effect
effect alone on inhibition by MAG ([1]; DFMO 1 mM, no dbcAMP): no significant effect
effect alone on neurite growth on control CHO cells, young DRG neurons [3]: no effect
effect on promotion of axonal growth by MAG in young DRG neurons ([3]; overnight): completely abolished

NCCCCN [putrescine]
putrescine concentration at which the blocking effect on myelin saturates ([4]; overnight priming): about 50 μM
increase in axonal outgrowth on CNS myelin ([4]; priming with putrescine at 10 μM): two-fold
block of inhibition of axonal growth by myelin, putrescine added without priming [4, 5]: only partially blocks
putrescine dose above which the blocking effect on MAG saturates ([1]; overnight priming): higher than 25 μM
effect of putrescine on BDNF priming blocked by DFMO (MAG) ([1]; putrescine (10 mM as printed elsewhere in the source) with DFMO 1 mM and BDNF during priming): restored the priming effect of BDNF
block of inhibition of axonal growth by MAG, putrescine added without priming [1, 5]: only partially blocks
